Reference: ChEMBL document CHEMBL4270604, “Hedgehog pathway inhibitors of the acylthiourea and acylguanidine class show antitumor activity on colon cancer in vitro and in vivo” (Eur J Med Chem, 2018)
pIC50: −log10 of the molar value.

Key:
[1] = molecular target: T1, Coelenterazine h 2-monooxygenase (Renilla reniformis, UniProt P27652); assay: Effect on Renilla reniformis luciferase; format: ADME
T1 sequence (P27652 whole entry): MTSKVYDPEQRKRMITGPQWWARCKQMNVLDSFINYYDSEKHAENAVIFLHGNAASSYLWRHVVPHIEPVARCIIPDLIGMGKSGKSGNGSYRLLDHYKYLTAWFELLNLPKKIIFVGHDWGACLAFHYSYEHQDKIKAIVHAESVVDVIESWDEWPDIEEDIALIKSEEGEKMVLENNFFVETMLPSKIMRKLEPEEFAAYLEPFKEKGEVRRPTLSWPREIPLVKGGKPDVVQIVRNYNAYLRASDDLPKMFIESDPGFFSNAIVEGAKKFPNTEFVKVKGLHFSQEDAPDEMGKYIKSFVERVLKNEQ

[2] = molecular target: T2, CYP2D6 (Homo sapiens, UniProt P10635); assay: Inhibition of recombinant human CYP2D6 expressed in insect cell microsomes at 1 uM using Luciferin-ME EGE as substrate preincubated for 30 mins followed by NADPH addition measured after 45 mins by luminometric method; format: ADME; details: probe Luciferin-ME EGE
T2 sequence (P10635 whole entry): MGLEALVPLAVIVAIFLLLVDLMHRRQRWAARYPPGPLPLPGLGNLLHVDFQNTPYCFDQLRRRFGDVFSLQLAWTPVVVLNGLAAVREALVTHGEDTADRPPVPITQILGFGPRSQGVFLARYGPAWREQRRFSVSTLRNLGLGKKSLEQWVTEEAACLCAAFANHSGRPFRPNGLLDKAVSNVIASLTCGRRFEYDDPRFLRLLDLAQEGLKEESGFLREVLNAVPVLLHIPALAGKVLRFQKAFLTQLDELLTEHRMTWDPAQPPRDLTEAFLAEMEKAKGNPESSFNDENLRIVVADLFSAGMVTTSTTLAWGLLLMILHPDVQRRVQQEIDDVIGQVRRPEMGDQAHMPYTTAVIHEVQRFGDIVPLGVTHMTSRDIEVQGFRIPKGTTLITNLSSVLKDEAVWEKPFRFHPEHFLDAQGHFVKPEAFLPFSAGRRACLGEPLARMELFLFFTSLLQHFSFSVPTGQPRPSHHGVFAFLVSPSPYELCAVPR

[3] = molecular target: T3, CYP2C19 (Homo sapiens, UniProt P33261); assay: Inhibition of recombinant human CYP2C19 expressed in insect cell microsomes at 10 uM using Luciferin-H EGE as substrate preincubated for 20 mins followed by NADPH addition measured after 30 mins by luminometric method; format: ADME; details: probe Luciferin-H EGE
T3 sequence (P33261 whole entry): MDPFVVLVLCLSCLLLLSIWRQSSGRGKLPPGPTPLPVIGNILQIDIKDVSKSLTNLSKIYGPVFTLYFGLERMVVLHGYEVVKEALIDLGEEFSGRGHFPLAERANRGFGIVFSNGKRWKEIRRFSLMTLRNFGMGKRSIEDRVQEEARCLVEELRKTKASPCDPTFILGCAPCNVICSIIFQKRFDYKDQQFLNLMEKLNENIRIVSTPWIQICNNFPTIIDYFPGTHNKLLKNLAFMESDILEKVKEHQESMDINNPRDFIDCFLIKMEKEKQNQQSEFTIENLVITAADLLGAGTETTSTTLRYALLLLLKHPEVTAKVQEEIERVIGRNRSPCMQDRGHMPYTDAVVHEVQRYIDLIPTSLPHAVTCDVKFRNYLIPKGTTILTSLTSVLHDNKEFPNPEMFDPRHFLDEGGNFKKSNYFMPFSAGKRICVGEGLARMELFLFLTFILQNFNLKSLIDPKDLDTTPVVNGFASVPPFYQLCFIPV

[4] = AUC (infinity) in CD1 mouse at 200 mg/kg, po administered as single dose by HPLC-MS/MS analysis; format: ADME, organism-based; parameters: dose 200 mg/kg, route oral, time infinity; details: in vivo
[5] = molecular target: T4, CYP3A4 (Homo sapiens, UniProt P08684); assay: Inhibition of recombinant human CYP3A4 expressed in insect cell microsomes at 1 uM using Luciferin-IPA as substrate preincubated for 10 mins followed by NADPH addition measured after 10 mins by luminometric method; format: ADME; details: probe Luciferin-IPA
T4 sequence (P08684 whole entry): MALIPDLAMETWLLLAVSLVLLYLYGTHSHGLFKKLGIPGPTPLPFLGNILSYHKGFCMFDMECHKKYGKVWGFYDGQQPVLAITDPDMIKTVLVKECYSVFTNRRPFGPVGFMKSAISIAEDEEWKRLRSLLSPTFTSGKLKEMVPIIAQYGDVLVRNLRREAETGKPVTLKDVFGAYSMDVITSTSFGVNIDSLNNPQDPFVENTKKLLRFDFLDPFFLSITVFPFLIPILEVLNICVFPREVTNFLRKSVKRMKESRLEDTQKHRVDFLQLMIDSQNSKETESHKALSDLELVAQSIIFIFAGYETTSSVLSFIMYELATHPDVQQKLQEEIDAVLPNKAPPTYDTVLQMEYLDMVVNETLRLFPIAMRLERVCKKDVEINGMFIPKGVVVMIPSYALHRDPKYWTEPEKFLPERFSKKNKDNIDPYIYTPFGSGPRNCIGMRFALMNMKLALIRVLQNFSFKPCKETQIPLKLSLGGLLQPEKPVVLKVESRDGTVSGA

[6] = molecular target: T5, CYP1A2 (Homo sapiens, UniProt P05177); assay: Inhibition of recombinant human CYP1A2 expressed in insect cell microsomes at 1 uM using Luciferin-ME as substrate preincubated for 10 mins followed by NADPH addition measured after 30 mins by luminometric method; format: ADME; details: probe Luciferin-ME
T5 sequence (P05177 whole entry): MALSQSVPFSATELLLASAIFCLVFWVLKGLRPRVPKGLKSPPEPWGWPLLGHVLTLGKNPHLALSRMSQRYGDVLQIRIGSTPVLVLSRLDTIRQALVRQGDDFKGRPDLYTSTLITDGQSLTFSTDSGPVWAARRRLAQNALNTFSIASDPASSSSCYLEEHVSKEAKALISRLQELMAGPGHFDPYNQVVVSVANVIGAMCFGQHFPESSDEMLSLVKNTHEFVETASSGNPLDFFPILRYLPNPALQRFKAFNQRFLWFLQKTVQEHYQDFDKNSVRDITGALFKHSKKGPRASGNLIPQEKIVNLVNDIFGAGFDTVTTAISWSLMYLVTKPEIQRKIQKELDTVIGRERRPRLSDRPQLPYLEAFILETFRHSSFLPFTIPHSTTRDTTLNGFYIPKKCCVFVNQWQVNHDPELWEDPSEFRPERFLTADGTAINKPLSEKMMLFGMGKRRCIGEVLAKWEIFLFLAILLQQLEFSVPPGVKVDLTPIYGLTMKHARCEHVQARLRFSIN

[7] = species on record: Homo sapiens; assay: Substrate activity at recombinant human P-gp in membrane fraction assessed as increase in ATPase activity at 10 uM by luminescent P-gp-Glo assay relative to control
[8] = Inhibition of hedgehog signaling pathway in mouse Light2 cells stimulated with 100 nM SAG after 30 hrs by Gli-firefly luciferase reporter gene assay
[9] = species on record: Mus musculus; assay: as above
[10] = molecular target: T4, CYP3A4; assay: Inhibition of recombinant human CYP3A4 expressed in insect cell microsomes at 5 uM using Luciferin-IPA as substrate preincubated for 10 mins followed by NADPH addition measured after 10 mins by luminometric method; format: ADME; details: probe Luciferin-IPA
[11] = Inhibition of hedgehog signaling pathway-mediated differentiation of mouse C3H10T1/2 cells assessed as decrease in SAG-induced ALP activity after 6 days by chemiluminescence-based assay; details: C3H 10T1/2, 144 h
[12] = system: LS180; assay: Antiproliferative activity against human LS180 cells after 72 hrs by sulforhodamine-B assay; format: functional, cell-based; details: for pIC50: LS180, 72 h
[13] = molecular target: CYP2C9 (Homo sapiens, UniProt P11712); assay: Inhibition of recombinant human CYP2C9 expressed in insect cell microsomes at 1 uM using Luciferin-H as substrate preincubated for 30 mins followed by NADPH addition measured after 30 mins by luminometric method; format: ADME; details: probe Luciferin-H
Chain of CYP2C9 (P11712 whole entry): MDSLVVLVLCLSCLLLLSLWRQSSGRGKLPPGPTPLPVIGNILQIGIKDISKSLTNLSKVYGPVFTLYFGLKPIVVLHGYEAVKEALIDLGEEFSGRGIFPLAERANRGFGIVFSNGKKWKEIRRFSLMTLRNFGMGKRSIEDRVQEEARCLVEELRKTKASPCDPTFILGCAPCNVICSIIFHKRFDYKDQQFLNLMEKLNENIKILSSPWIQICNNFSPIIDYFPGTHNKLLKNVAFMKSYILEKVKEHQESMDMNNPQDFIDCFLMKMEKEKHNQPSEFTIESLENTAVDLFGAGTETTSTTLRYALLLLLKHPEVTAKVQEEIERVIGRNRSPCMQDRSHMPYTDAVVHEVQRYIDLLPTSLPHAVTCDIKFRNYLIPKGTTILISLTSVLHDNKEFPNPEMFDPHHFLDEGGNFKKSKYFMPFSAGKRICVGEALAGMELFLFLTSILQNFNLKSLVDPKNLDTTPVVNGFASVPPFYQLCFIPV

[14] = Cmax in CD1 mouse at 200 mg/kg, po administered as single dose by HPLC-MS/MS analysis; format: ADME, organism-based; parameters: dose 200 mg/kg, route oral; details: in vivo
[15] = molecular target: T2, CYP2D6; assay: Inhibition of recombinant human CYP2D6 expressed in insect cell microsomes at 5 uM using Luciferin-ME EGE as substrate preincubated for 30 mins followed by NADPH addition measured after 45 mins by luminometric method; format: ADME; details: probe Luciferin-ME EGE
[16] = Tmax in CD1 mouse at 200 mg/kg, po administered as single dose by HPLC-MS/MS analysis; format: ADME, organism-based; details: in vivo
[17] = molecular target: T6, Cytochrome P450 1A2 (Homo sapiens, UniProt P05177); assay: Inhibition of recombinant human CYP1A2 expressed in insect cell microsomes using Luciferin-ME as substrate preincubated for 10 mins followed by NADPH addition measured after 30 mins by luminometric method; format: ADME; details: recombinant enzyme, 0.5 h
T6 sequence (P05177 whole entry): T5 sequence (P05177 whole entry)

[18] = in vitro; details: human, Caco-2
Description: Apparent permeability of the compound from apical to basolateral side in human Caco2 cells assessed as drug recovery after 120 mins by LC-MS/MS analysis

[19] = AUClast in CD1 mouse at 200 mg/kg, po administered as single dose by HPLC-MS/MS analysis; format: ADME, organism-based; parameters: dose 200 mg/kg, time 0 - last, route oral; details: in vivo
[20] = molecular target: T3, CYP2C19; assay: Inhibition of recombinant human CYP2C19 expressed in insect cell microsomes at 5 uM using Luciferin-H EGE as substrate preincubated for 20 mins followed by NADPH addition measured after 30 mins by luminometric method; format: ADME; details: probe Luciferin-H EGE
[21] = molecular target: Cytochrome P450 3A4 (Homo sapiens, UniProt P08684); assay: Inhibition of recombinant human CYP3A4 expressed in insect cell microsomes using Luciferin-IPA as substrate preincubated for 10 mins followed by NADPH addition measured after 10 mins by luminometric method; format: ADME; details: recombinant enzyme
Chain of Cytochrome P450 3A4 (P08684 whole entry): as the sequence (P08684 whole entry) above

[22] = in vitro; details: human, Caco-2; remark: listed apart in the source
Description: Apparent permeability of the compound from basolateral to apical side in human Caco2 cells assessed as drug recovery after 120 mins by LC-MS/MS analysis

[23] = system: Mus musculus; assay: Tlast in CD1 mouse at 200 mg/kg, po administered as single dose by HPLC-MS/MS analysis; format: ADME, organism-based; details: in vivo
[24] = molecular target: T2, CYP2D6; assay: Inhibition of recombinant human CYP2D6 expressed in insect cell microsomes at 10 uM using Luciferin-ME EGE as substrate preincubated for 30 mins followed by NADPH addition measured after 45 mins by luminometric method; format: ADME; details: probe Luciferin-ME EGE
[25] = Terminal half life in CD1 mouse at 200 mg/kg, po administered as single dose by HPLC-MS/MS analysis; format: ADME, organism-based; details: in vivo, read-out: beta t1/2 (converted)

Row | SMILES | Activity [1] | inhibition at 0.75 h, 1 µM [2] [%] | inhibition at 0.5 h, 10 µM [3] [%] | AUC(0-inf) [4] [µg·h/mL] | inhibition at 10 min, 1 µM [5] [%] | inhibition at 0.5 h, 1 µM [6] [%] | fold change (FC) [7] | pIC50 [8] | inhibition [9] | inhibition at 10 min, 5 µM [10] [%] | pIC50 [11] | Activity [12] | pIC50 [12] | inhibition at 0.5 h, 1 µM [13] [%] | Cmax [14] [ng/mL] | inhibition at 0.75 h, 5 µM [15] [%] | Tmax [16] [h] | inhibition (INH) [17] | recovery at 2 h [18] [%] | AUC(0-t) [19] [µg·h/mL] | also measured
1 | COc1cc(C(=O)NC(=N)Nc2ccc(C)c(NC(=O)c3ccc(-c4ccccc4)cc3)c2)cc(OC)c1OC.Cl | Not Active | 19 | 81 | 237 | 38 | 49 | 4.8 | 7.15 | Dose-dependent effect | 76 | 7.22 | Dose-dependent effect | 5.01 | 43 | 29600 | 29 | 2 | Dose-dependent effect | 16.5 | 237 | inhibition at 0.5 h, 5 µM [20]: 79%; inhibition (INH) [21]: Dose-dependent effect; recovery at 2 h [22]: 31.9%; Tlast [23]: 24 h; inhibition at 0.75 h, 10 µM [24]: 23%; half-life [25]: 144 min
2 | COc1cc(C(=O)NC(=N)Nc2ccc(C)c(NC(=O)c3ccc(CCc4ccccc4)cc3)c2)cc(OC)c1OC.Cl | Not Active | 15 | 83 | 137 | 76 | 29 | 1.4 | 7.70 | Dose-dependent effect | 89 | 7.40 | Dose-dependent effect | 5.60 | 68 | 11000 | 12 | 4 | Dose-dependent effect | 41.1 | 137 | inhibition at 0.5 h, 5 µM [20]: 81%; inhibition (INH) [21]: Dose-dependent effect; recovery at 2 h [22]: 44.6%; Tlast [23]: 24 h; inhibition at 0.75 h, 10 µM [24]: 11%; half-life [25]: 150 min
3 | COc1cc(C(=O)NC(=N)Nc2ccc(C)c(NC(=O)c3ccc(-c4ccc(F)cc4)cc3)c2)cc(OC)c1OC.Cl | Not Active | 20 | 76 | 224 | 52 | 46 | 2.3 | 7.30 | Dose-dependent effect | 78 | 7.15 | Dose-dependent effect | 5.09 | 63 | 17300 | 25 | 1 | Dose-dependent effect | 33 | 223 | inhibition at 0.5 h, 5 µM [20]: 76%; inhibition (INH) [21]: Dose-dependent effect; recovery at 2 h [22]: 30.6%; Tlast [23]: 24 h; inhibition at 0.75 h, 10 µM [24]: 21%; half-life [25]: 156 min
